Literature values in paper PMC8374649, “IBI362 (LY3305677), a weekly-dose GLP-1 and glucagon receptor dual agonist, in Chinese adults with overweight or obesity: A randomised, placebo-controlled, multiple ascending dose phase 1b study” (EClinicalMedicine, 2021).

What was measured:
[1] = system: human GLP-1 receptors; conditions: in vitro; cited from earlier work
From the text: (§1) IBI362 is a long-acting synthetic peptide analogue of mammalian OXM, with a fatty-acyl moiety to extend the half-life. […] Furthermore, a first-in-human single ascending dose ...

[2] = system: Gcgr knockout (KO) mice; conditions: cited from earlier work
From the text: as §1

[3] = system: mouse glucagon receptors; conditions: in vitro; cited from earlier work
From the text: as §1

[4] = system: mouse GLP-1 receptors; conditions: in vitro; cited from earlier work
From the text: as §1

[5] = system: human glucagon receptors; conditions: in vitro; cited from earlier work
From the text: as §1

[6] = system: Glp1r KO mice; conditions: cited from earlier work
From the text: as §1

[7] = system: healthy subjects; conditions: single ascending dose; cited from earlier work
From the text: as §1

[8] = system: mice; conditions: cited from earlier work
From the text: as §1

CC(C)C[C@H](NC(=O)[C@H](CC(C)C)NC(=O)[C@H](Cc1c[nH]c2ccccc12)NC(=O)[C@H](CCC(=O)O)NC(=O)[C@@H](NC(=O)[C@H](Cc1ccccc1)NC(=O)[C@H](CCC(=O)O)NC(=O)[C@H](CCCCNC(=O)COCCOCCNC(=O)COCCOCCNC(=O)CC[C@H](NC(=O)CCCCCCCCCCCCCCCCCCC(=O)O)C(=O)O)NC(=O)[C@H](C)NC(=O)[C@H](CCCCN)NC(=O)[C@H](CCCCN)NC(=O)[C@H](CCC(=O)O)NC(=O)[C@H](CC(=O)O)NC(=O)[C@H](CC(C)C)NC(=O)[C@H](Cc1ccc(O)cc1)NC(=O)[C@H](CCCCN)NC(=O)[C@H](CO)NC(=O)[C@H](Cc1ccc(O)cc1)NC(=O)[C@H](CC(=O)O)NC(=O)[C@H](CO)NC(=O)[C@@H](NC(=O)[C@H](Cc1ccccc1)NC(=O)[C@@H](NC(=O)CNC(=O)[C@H](CCC(N)=O)NC(=O)C(C)(C)NC(=O)[C@@H](N)Cc1c[nH]cn1)[C@@H](C)O)[C@@H](C)O)C(C)C)C(=O)N[C@@H](CCC(=O)O)C(=O)NCC(=O)NCC(=O)N1CCC[C@H]1C(=O)N[C@@H](CO)C(=O)N[C@@H](CO)C(=O)NCC(N)=O [IBI362]
Binding to human GLP-1 receptors [1]: potently bound
Body weight [2]: decreased body weight
Binding to mouse glucagon receptors [3]: potently bound
Binding to mouse GLP-1 receptors [4]: potently bound
Binding to human glucagon receptors [5]: potently bound
Body weight [6]: decreased body weight
Safety, glycaemic improvement and weight loss [7]: demonstrated the safety, glycaemic improvement and weight loss
Energy expenditure as compared with vehicle [8]: increased energy expenditure
Glucose control [8]: improved glucose control
